# Legend:
# Assay type in all cases: cell-based
# Conditions in all cases: sgRNA in GFP-negative cell population, day 14 after transfection of EPIREG
# [1] = test system: type D HBV surface antigen (HBsAg) reporter cell line; assay: sgRNA lentiviral library screening, HBsAg reporter cell line (NGS reads in GFP-negative cells)
# Excerpt: (§1) In this example, the type D HBV X protein (HBx), core antigen (HBcAg), and surface antigen (HBsAg) reporter cell lines were used for library screening. First, a sgRNA cell library of type D HBV gene was constructed using a reporter cell line according to the method described in example 1. The sgRNA library was packaged into lentivirus to obtain a sgRNA lentiviral library (carrying red fluorescence), the reporter cell line was infected with the lentiviral library, and the red fluorescence was sorted to obtain the sgRNA cell library. Each cell in this sorted cell library integrated a single sgRNA in the library while the cell itself carried a reporter sequence (carrying green fluorescence). The EPIREG tool described in example 2 (the amino acid sequence of the tool was SEQ ID NO: 1194) (carrying blue fluorescence) was transfected and delivered into a cell library carrying both sgRNA and reporter sequences. Red/green/blue fluorescent triple-positive cells were sorted using a flow cytometer and cultured long-term. The EPIREG transfected into the cells could work together with the sgRNA to silence GFP in the reporter. On the day 14 after transfection, the GFP-negative cell population in the cell library was sorted, the genomic DNA of the negative cell population was extracted for NGS sequencing. The sgRNAs with higher sequencing reads in the negative cell population were compared using the untreated cell library as a control reference, so as to obtain the candidate sgRNAs that could play an editing role corresponding to each reporter, respectively (the schematic diagram of this screening scheme is shown in FIG. 6, and the analysis method is referenced to the literature DOI: 10.1186/s13059-014-0554-4). The functionally validated sgRNAs for each reporter cell line are summarized in the following table (arranged by the starting position of the target sequence of each sgRNA).
# [2] = test system: type D HBV core antigen (HBcAg) reporter cell line; assay: sgRNA lentiviral library screening, HBcAg reporter cell line (NGS reads in GFP-negative cells)
# Excerpt: as §1
# [3] = test system: type D HBV X protein (HBx) reporter cell line; assay: sgRNA lentiviral library screening, HBx reporter cell line (NGS reads in GFP-negative cells)
# Excerpt: as §1
Substance,Log2 FC [1],Log2 FC [2],Log2 FC [3]
"839 (guide GTCTTACATAAGAGGACTCT; listed as DNA, chemistry not fully specified) [compound 839]",1.3376,–,–
"215 (guide AGTCTTTGAAGTATGCCTCA; listed as DNA, chemistry not fully specified) [compound 215]",1.3799,2.1589,–
"658 (guide GCAAATATACATCGTATCCA; listed as DNA, chemistry not fully specified) [compound 658]",1.8084,2.2171,4.7952
"774 (guide GGGGCGCACCTCTCTTTACG; listed as DNA, chemistry not fully specified) [compound 774]",1.1527,–,3.0494
"593 (guide GAATCCCAGAGGATTGCTGG; listed as DNA, chemistry not fully specified) [compound 593]",0.9124,–,–
"62 (guide AATGTCAACGACCGACCTTG; listed as DNA, chemistry not fully specified) [compound 62]",1.5364,2.2035,–
"1072 (guide TGTAGTATGCCCTGAGCCTG; listed as DNA, chemistry not fully specified) [compound 1072]",1.1325,–,–
"825 (guide GTCCCAAGCGACCCCGAGAA; listed as DNA, chemistry not fully specified) [compound 825]",1.0352,3.3064,5.2457
"112 (guide ACCTTTGGATAAAACCTAGC; listed as DNA, chemistry not fully specified) [compound 112]",1.203,–,–
"810 (guide GTAAAGAGAGGTGCGCCCCG; listed as DNA, chemistry not fully specified) [compound 810]",1.7059,2.5258,5.1825
"669 (guide GCAGATGAGAAGGCACAGAC; listed as DNA, chemistry not fully specified) [compound 669]",1.1259,3.0945,4.1676
"161 (guide AGATTAAAGGTCTTTGTACT; listed as DNA, chemistry not fully specified) [compound 161]",1.8238,2.5156,–
"506 (guide CGTCCCGCGCAGGATCCAGT; listed as DNA, chemistry not fully specified) [compound 506]",1.5863,3.3238,5.3827
"410 (guide CCCGTTGCCCGGCAACGGCC; listed as DNA, chemistry not fully specified) [compound 410]",1.9735,–,–
"985 (guide TCTGCCGTTCCGACCGACCA; listed as DNA, chemistry not fully specified) [compound 985]",1.8695,3.1824,6.0276
"834 (guide GTCGGAACGGCAGACGGAGA; listed as DNA, chemistry not fully specified) [compound 834]",1.2666,2.7177,4.7704
"127 (guide ACTGGCTGGGGCTTGGTCAT; listed as DNA, chemistry not fully specified) [compound 127]",1.3983,2.0792,7.231
"145 (guide AGACTGGGAGGAGTTGGGGG; listed as DNA, chemistry not fully specified) [compound 145]",1.8314,3.5473,–
"1025 (guide TGCCCAAGGTCTTACATAAG; listed as DNA, chemistry not fully specified) [compound 1025]",1.4524,2.0852,–

Substance,Log2 FC [1],Log2 FC [2],Log2 FC [3]
"591 (guide GAAGCGAAGTGCACACGGTC; listed as DNA, chemistry not fully specified) [compound 591]",–,4.4134,5.7107
"553 (guide CTGGCCGTTGCCGGGCAACG; listed as DNA, chemistry not fully specified) [compound 553]",–,2.4462,3.9905
"121 (guide ACTACTGTTGTTAGACGACG; listed as DNA, chemistry not fully specified) [compound 121]",1.0553,–,–
"1084 (guide TTAAAGGTCTTTGTACTAGG; listed as DNA, chemistry not fully specified) [compound 1084]",1.0831,–,–
"451 (guide CCTGCTGCGAGCAAAACAAG; listed as DNA, chemistry not fully specified) [compound 451]",–,2.9406,5.3958
"998 (guide TCTTTGTACTAGGAGGCTGT; listed as DNA, chemistry not fully specified) [compound 998]",2.1989,4.2906,–
"612 (guide GACGCAACCCCCACTGGCTG; listed as DNA, chemistry not fully specified) [compound 612]",–,2.8035,6.7125
"1028 (guide TGCCGTTCCGACCGACCACG; listed as DNA, chemistry not fully specified) [compound 1028]",0.8922,3.8548,–
"242 (guide ATCCTGCGGACGACCCTTCT; listed as DNA, chemistry not fully specified) [compound 242]",0.8809,–,–
"1008 (guide TGACGCAACCCCCACTGGCT; listed as DNA, chemistry not fully specified) [compound 1008]",–,1.8835,4.9717
"270 (guide ATTTGCTGTGTTTGCTCTGA; listed as DNA, chemistry not fully specified) [compound 270]",1.397,–,–
"598 (guide GACATGAACAAGAGATGATT; listed as DNA, chemistry not fully specified) [compound 598]",1.4722,4.6761,–
"668 (guide GCAGAGGTGAAAAAGTTGCA; listed as DNA, chemistry not fully specified) [compound 668]",1.297,1.9744,–
"829 (guide GTCCTCTTATGTAAGACCTT; listed as DNA, chemistry not fully specified) [compound 829]",0.9029,–,–
"150 (guide AGAGAGGTGCGCCCCGTGGT; listed as DNA, chemistry not fully specified) [compound 150]",1.453,–,3.8671
"671 (guide GCAGCACAGCCTAGCAGCCA; listed as DNA, chemistry not fully specified) [compound 671]",1.2918,–,–
"227 (guide ATAGAGTATTTGGTGTCTTT; listed as DNA, chemistry not fully specified) [compound 227]",0.9275,–,–
"27 (guide AACAAGAGATGATTAGGCAG; listed as DNA, chemistry not fully specified) [compound 27]",1.3821,–,–

# Reference: patent US20260097133A1, “EPIGENETIC EDITING TOOL FOR TARGETING HEPATITIS B VIRUS GENE” (priority 2023, published 2026)
